Results taken from patent publication US10449261B2, “Compositions targeting radiation-induced molecules and methods of use thereof” (Washington University, priority 2014, dated 2019).
“Also recorded” adds a separate entry of the source. Numbered stars: 1 amine (or outer) side, 2 acyl side, 3 side chain; on linkers, the order of the positions; unused ones are H or OH. Primed or numbered codes have the meaning given here. Ends that are not written are not given here. * marks the point of attachment. K(CHX-A″-DTPA) = O=C(O)CN(CC(=O)O)[C@H](Cc1ccc(NC(=S)NCCCC[C@H](N[*:1])C(=O)[*:2])cc1)CN(CC(=O)O)[C@H]1CCCC[C@@H]1N(CC(=O)O)CC(=O)O; FITC = O=C1OC2(c3ccc(O)cc3Oc3cc(O)ccc32)c2ccc(NC(=S)*)cc21; DTPA = O=C(O)CN(CCN(CC(=O)O)CC(=O)O)CCN(CC(=O)O)CC(=O)*; PEG = not defined here; AEEA = NCCOCCOCC(=O)O

Experiments:
D54 (glioma) = test: Binding of FITC-conjugated GIRLRG to cancer cells (fluorescent microscope); format: cell-based, human; conditions: 10 μg/ml, 2 h, 37° C.
Description: (§1) Four cancer cell lines D54 (glioma), HT3 (cervical), OE33 (eosophageal) and A549 (lung cancer) were used to evaluate binding of GIRLRG (SEQ ID NO:1) peptide. Cancer cells were incubated with FITC-conjugated GIRLRG (SEQ ID NO:1) peptide and fluorescent images were acquired using a fluorescent microscope.
(§2) Cell Lines: Human lung adenocarcinoma A549 and Human glioblastoma D54 cells were cultured in DMEM/F12, human esophageal carcinoma OE33 cells in RPMI and HT3 cells in IMDM media supplemented with 10% fetal bovine serum, penicillin and streptomycin. They were maintained at 37° C. in a 5% CO2 incubator.
(§3) Immunofluorescence: Cancer cells (A549, HT3, D54 and OE33) were grown on chamber slides (Millipore, USA) and incubated with 10 μg/ml FITC-GIRLRG (SEQ ID NO:1) peptide for 2 h at 37° C. in a CO2 incubator. The cells were then washed with PBS to remove unbound peptide and fixed with 4% paraformaldehyde at room temperature. The nuclei were stained with DAPI and fluorescent images were captured using a Carl Zeiss microscope (Tokyo, Japan).

A549 (lung cancer) = test: as above; format: cell-based, human; conditions: 10 μg/ml, 2 h, 37° C.
Description: as §1, §2, §3

OE33 (eosophageal) = test: as above; format: cell-based, human; conditions: 10 μg/ml, 2 h, 37° C.
Description: as §1, §2, §3

HT3 (cervical) = test: as above; format: cell-based; conditions: 10 μg/ml, 2 h, 37° C.
Description: as §1, §2, §3

[1] = test system: cervical (HT3) heterotopic tumors; conditions: for effect of tumor irradiation on tumor binding: HT3, right hind limb 3 fractions of 3 Gy vs sham left
Description: (§7) Nude mice bearing the HT3 and OE33 tumors in both the hind limbs were used (˜1 cm^3). Since radiotherapy is used in treating cervical and esophageal cancers, we also irradiated the tumors. The tumor on the right hind limb was irradiated with 3 fractions of 3 Gy over a course of 24 h, the tumor on the left hind limb was used as sham control. The mice were then injected with 500 μCi (10 μCi/μg) of radiolabeled peptide via tail vein. SPECT/CT imaging was performed at 48 and 72 h post injection.
(§8) Tumor models were established in 6 to 8-week-old female athymic nude mice obtained from Harlan laboratories (USA). Heterotopic tumors were induced by sub-cutaneously injecting tumor cells (1-3×10^6) into hind limbs of athymic nude mice. The tumors were grown until a size of 1 cm^3 before using the mice for SPECT imaging.
(§9) Whole body SPECT images were obtained at 48 and 72 h post injection (p.i.) using a NanoSPECT/CT imager (Bioscan Inc., Washington, D.C., USA) fitted with 2 mm pinhole collimators in helical scanning mode. Mice were placed in prone position and scanned under anesthesia (0.5 L/min 1.5% isoflurane in air). A 45-keV helical CT scan was performed first and then the SPECT acquisition was performed at 24 projections and 60 s per projection, for a total scan time of about 45 min. Tomographic data were reconstructed iteratively with the manufacturer-supplied InVivoScope and HiSPECT software for CT and SPECT, respectively.
(§10) After scanning, 96 h p.i., the bio-distribution of the labelled peptide in various organs was determined. The animals were sacrificed and organs of interest including blood were dissected/collected, weighed, and counted in a gamma counter along with a standard of the injected activity to allow calculation of the injected dose per organ (% ID/organ).

[2] = test system: esophageal (OE33) heterotopic tumors; test: NanoSPECT/CT imaging and post-SPECT biodistribution in tumor bearing nude mice; conditions: for effect of tumor irradiation on tumor binding: OE33, right hind limb 3 fractions of 3 Gy vs sham left; for tumor uptake, post-SPECT biodistribution, compared to control peptide: OE33 tumor bearing mice, 96 h after injection; for tumor binding by SPECT imaging: OE33 tumors, 48 h and 72 h post injection, 500 μCi via tail vein
Description: as §7, §8, §9, §10

esophageal tumors = test: SPECT imaging of 111In-labeled PEG-GIRLRG (Example 1); format: in vivo, mouse; conditions: 72 hours following administration, 3 Gy vs 0Gy
Description: (§4) The right hind limb tumor was treated with 3 Gy and left hind limb tumor is an untreated (0Gy) internal control in the same mouse.

brain tumors = test: as above; format: in vivo, mouse; conditions: 72 hours following administration, 3 Gy vs 0Gy
Description: as §4

cervix tumors = test: as above; format: in vivo, mouse; conditions: 72 hours following administration, 3 Gy vs 0Gy
Description: as §4

cancer = test: Optimisation of the peptide construct: circulation and cancer binding; conditions: in vivo
From the text: The GIRLRG (SEQ ID NO:1) peptide conjugated to a poly-lysine linker for DOTA and DTPA conjugation was first studied. […] The duration of tumor binding was improved by PEGylation, with longer circulation times and prolonged imaging in cancer. […] Both PEG20 and PEG40 are effective at enhancing prolonged binding in cancer. […]

[3] = test system: lung cancer (A549) tumors; test: SPECT/CT imaging of tumor models; format: in vivo, mice; conditions: right hind limb 3 doses of 3 Gy
From the text: (§5) In addition we also screened lung cancer (A549), pancreatic cancer (BxPC3) and glioblastoma (D54) tumor models for binding of radiolabeled GIRLRG (SEQ ID NO:1) peptide.

[4] = test system: glioblastoma (D54) tumors; test: SPECT/CT imaging of tumor models; format: in vivo, mice; conditions: right hind limb 3 doses of 3 Gy
From the text: as §5

[5] = test system: pancreatic cancer (BxPC3) tumors; test: SPECT/CT imaging of tumor models; format: in vivo, mice; conditions: right hind limb 3 doses of 3 Gy
From the text: as §5

[6] = Size and aggregation of pegylated peptides (dynamic light scattering); format: physicochemical
irradiated A549 tumors = test: SPECT imaging and gamma emission of organs and tumors (Example 1); format: in vivo, mice; conditions: mice with A549 tumors, 3 Gy
Description: (§6) SPECT images of the spatial and temporal pharmacokinetics of ^111In-labeled PEG-GIRLRG and ^111In-labeled control peptide within irradiated mouse A549 tumors is shown in FIG. 1. At 7 days after administration, gamma emission from each of the organs and tumors of mice injected with PEG-GIRLRG (SEQ ID NO:1) and PEG-control peptide was measured (FIG. 2).

[7] = test system: irradiated mouse A549 tumors; test: as above; format: in vivo, mice; conditions: A549 tumors, 7 days after administration
Description: as §6

[8] = target: T1, recombinant eukaryotic GRP78 protein (Prospec, USA) (UniProt P11021 19-654, limits assumed); test: SPR (BIAcore 2000), GRP78 amine-coupled on a CM4 chip, peptide as analyte at 0.313-10 mM, 25 C, HBS-EP
T1 construct: Immobilised by amine coupling on a CM4 chip; also called Glucose-regulated protein 78 kDa; Glucose Regulatory Protein-78
T1 sequence (P11021 19-654 limits assumed): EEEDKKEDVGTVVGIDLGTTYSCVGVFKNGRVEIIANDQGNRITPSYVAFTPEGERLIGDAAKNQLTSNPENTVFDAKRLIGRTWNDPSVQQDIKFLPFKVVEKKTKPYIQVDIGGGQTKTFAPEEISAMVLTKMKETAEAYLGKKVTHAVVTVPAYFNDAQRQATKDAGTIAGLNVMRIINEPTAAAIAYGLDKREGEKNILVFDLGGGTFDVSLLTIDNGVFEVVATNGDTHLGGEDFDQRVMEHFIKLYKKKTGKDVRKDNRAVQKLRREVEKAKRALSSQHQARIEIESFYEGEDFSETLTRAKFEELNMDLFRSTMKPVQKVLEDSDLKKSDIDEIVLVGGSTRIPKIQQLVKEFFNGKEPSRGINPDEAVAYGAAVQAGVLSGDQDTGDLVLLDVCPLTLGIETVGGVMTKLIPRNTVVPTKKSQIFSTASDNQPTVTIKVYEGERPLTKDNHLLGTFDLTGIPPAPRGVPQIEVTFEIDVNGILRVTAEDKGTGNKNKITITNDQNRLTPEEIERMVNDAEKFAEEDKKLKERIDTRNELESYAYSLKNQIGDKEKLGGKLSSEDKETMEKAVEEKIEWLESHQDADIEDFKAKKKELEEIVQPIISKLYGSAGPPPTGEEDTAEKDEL
Description: To determine the binding affinity of GIRLRG (SEQ ID NO:1) peptide to GRP78 protein, we used surface plasmon resonance technology. GRP78 protein was immobilized on the surface of CM4 sensor chip and approximately 7000 resonance Units (RUs) of GRP78 protein were immobilized (FIG. 6A). The GIRLRG (SEQ ID NO:1) peptide was dissolved in HBS-EP buffer at various concentrations (10, 5, 2.5, 1.25 and 0.313 mM) and passed over the immobilized GRP78 for 2 min (FIG. 6B). The rate constant K_D was obtained by fitting the sensogram data after reference subtraction (data from blank channel) using the BIA evaluation 3.0 software.
Surface Plasmon Resonance (SPR): Affinity of GIRLRG (SEQ ID NO:1) to GRP78 protein was measured by the biosensor-based SPR technique using an automatic apparatus BIAcore 2000 (GE healthcare, Sweden) as described earlier. The recombinant eukaryotic GRP78 protein (Prospec, USA) as ligand that was immobilized by amine coupling on the CM4 sensor surface and GIRLRG (SEQ ID NO:1) peptide was used as the analyte. Experiments were performed at 25° C. in HBS-EP buffer (GE healthcare). GRP78 protein was immobolized using surface preparation wizard for amine coupling. […] The affinity of the interaction was determined from the level of binding at equilibrium as a function of the sample concentrations by BIA evaluation software 3.0.

## FITC-GIRLRG: FITC-conjugated GIRLRG peptide ({FITC}-GIRLRG)
D54 (glioma)
  binding to cancer cells: specifically bound
D54 (glioma); listed as FITC labeled GIRLRG
  binding to cancer cells: showed binding
A549 (lung cancer)
  binding to cancer cells: specifically bound
A549 (lung cancer); listed as FITC labeled GIRLRG
  binding to cancer cells: showed binding
OE33 (eosophageal)
  binding to cancer cells: specifically bound
OE33 (eosophageal); listed as FITC labeled GIRLRG
  binding to cancer cells: showed binding
HT3 (cervical)
  binding to cancer cells: specifically bound
HT3 (cervical); listed as FITC labeled GIRLRG
  binding to cancer cells: showed binding

## GIRLRG [GIRLRG]
[1]
  effect of tumor irradiation on tumor binding: did not interfere with specific binding
[2]
  effect of tumor irradiation on tumor binding: did not interfere with specific binding

## ^111In-labeled PEG-DTPA-GIRLRG: PEG-GIRLRG radiolabeled with ^111Indium by use of DTPA as the chelator ({PEG-DTPA}-GIRLRG; reading uncertain; also: radiolabeled with 111In chelated by DTPA)
[1]
  effect of tumor irradiation on tumor binding: did not affect tumor binding
[1]; HT3 tumors, 48 h and 72 h post injection, 500 μCi via tail vein
  tumor binding by SPECT imaging: bound
Esophageal tumors
  cancer selective binding: cancer selective binding
Brain tumors
  cancer selective binding: cancer selective binding
Cervix tumors
  cancer selective binding: cancer selective binding
[2]
  effect of tumor irradiation on tumor binding: did not affect tumor binding
  tumor uptake, post-SPECT biodistribution, compared to control peptide: Significantly higher (p<0.001) uptake
  tumor binding by SPECT imaging: bound
cancer
  cancer binding: binds within irradiated cancers
[3]
  tumor binding by SPECT/CT imaging: enhanced binding
[4]
  tumor binding by SPECT/CT imaging: enhanced binding
[5]
  tumor binding by SPECT/CT imaging: enhanced binding

## mPEG40K-carbonyl-Lys(CHX-A″-DTPA)-AEEAc-Lys(CHX-A″-DTPA)-AEEAc-Trp-Lys(CHX-A″-DTPA)-AEEAc-GIRLRG ({mPEG40K‑carbonyl-K(CHX-A″-DTPA)-AEEA-K(CHX-A″-DTPA)-AEEA-Trp-K(CHX-A″-DTPA)-AEEA}-GIRLRG) [PEG-GIRLRG, GIRLRG peptide conjugated to 40 kDa PEG with DTPA as the chelator]
[6]
  size: 8 nm
[6]; after heating / radiolabeling conditions
  aggregation: did not aggregate even after heating
[2]
  tumor uptake, post-SPECT biodistribution, compared to control peptide: Significantly higher uptake
  tumor binding by SPECT imaging: specifically bound; also recorded: Enhanced tumor binding
Irradiated A549 tumors
  binding to irradiated normal tissue: did not bind to irradiated normal tissue
[7]
  tumor binding (gamma emission from organs and tumors): selectively bound to tumors
[3]
  tumor binding by SPECT/CT imaging: specific binding; also recorded: Enhanced tumor binding
[4]
  tumor binding by SPECT/CT imaging: specific binding; also recorded: Enhanced tumor binding
[5]
  tumor binding by SPECT/CT imaging: specific binding; also recorded: Enhanced tumor binding

B1: GIRLRG (SEQ ID NO:1) peptide (peptide)
peptide: GIRLRG
notes: Unconjugated synthetic hexapeptide, used as the analyte in SPR and as the ligand in the molecular model; also called lead peptide
[8]
  Kd: 2160 µM
